Laboratory results published in BigSolDB 2.1.

CN1c2ccccc2C(=O)N2CCc3c([nH]c4ccccc34)[C@H]21
solubility (mole fraction)
Details	283.2 K	288.2 K	293.2 K	298.2 K	303.2 K	313.2 K	323.2 K
in acetone	0.000216	–	0.000303	–	0.00038	0.000513	0.000676
in chloroform	0.000683	–	0.000876	–	0.00105	0.00135	0.00183
in cyclohexane	1.68e-06	–	2.81e-06	–	4.49e-06	6.47e-06	9.36e-06
in dichloromethane	0.000334	0.00037	0.000417	0.00048	0.000571	–	–
in diethyl ether	4.06e-05	5.16e-05	6.93e-05	7.51e-05	9.09e-05	–	–
in ethanol	6.12e-05	–	8.02e-05	–	0.000116	0.000173	0.000257
in ethyl acetate	0.000135	–	0.000165	–	0.000255	0.000321	0.000412
in isopropanol	7e-05	–	8.69e-05	–	0.000119	0.000181	0.000287
in methanol	3.52e-05	–	5.19e-05	–	7.24e-05	0.00011	0.000176
in n-butanol	0.000112	–	0.000139	–	0.000216	0.000317	0.000458
in n-hexane	1.05e-06	–	1.66e-06	–	2.61e-06	4.37e-06	5.84e-06
in n-pentane	1.59e-06	2.2e-06	2.92e-06	3.79e-06	4.7e-06	–	–
